Data set [1] concerns the target T1, HsPrx3 (human peroxiredoxin 3, wtHsPrx3) (Homo sapiens, UniProt P30048).
T1 construct: gene PRDX3; three additional N-terminal Gly; E. coli BL21 Star (DE3); reduced subunit predicted 21,797 Da; three Cys; dodecamer when reduced
T1 sequence (P30048 62-256): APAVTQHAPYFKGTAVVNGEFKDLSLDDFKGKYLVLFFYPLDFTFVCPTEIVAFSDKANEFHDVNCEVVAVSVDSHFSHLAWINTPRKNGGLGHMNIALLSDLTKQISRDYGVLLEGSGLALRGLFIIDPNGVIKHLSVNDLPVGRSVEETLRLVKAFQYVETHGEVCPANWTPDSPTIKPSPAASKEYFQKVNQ
Briefly: thermal unfolding by intrinsic fluorescence. The note with it: reduced HsPrx3 4 µM, AA 10 µM, 2 mM DTT, 50 mM phosphate, 0.1 mM DTPA, pH 7.8. The data set is classed as binding.

Data set [2] addresses T1, HsPrx3 (human peroxiredoxin 3, wtHsPrx3). The data set is described as follows: stopped-flow intrinsic fluorescence, slope of kobs of second phase. It is filed as biochemical. The note with it: rate constant of peroxidatic Cys hyperoxidation; covalent oxidation, inactivating; pH 7.8, 11–12 °C, 50 mM sodium phosphate, 0.1 mM DTPA. From the text: stopped-flow intrinsic fluorescence, slope of kobs of second phase on HsPrx3 (human peroxiredoxin 3, wtHsPrx3)

The target is the same in data set [3]. Briefly: intrinsic tryptophan fluorescence quenching / FRET titration, hyperbolic fit. The data set is classed as binding.
Data set [4] deals with the molecule itself. Briefly: ESI mass spectrometry of the intact protein after C4 HPLC; reduced HsPrx3 (10 µM) in 50 mM phosphate buffer plus 0.1 mM DTPA, pH 7.8, 25 °C, exposed to H2O2 (20 µM) or 15(S)-HpEPE (10 or 20 µM), alkylated with 2-iodoacetamide (5 mM); disulfide-bonded dimer.

On to `CCCCC/C=C\C/C=C\C/C=C\C/C=C\CCCC(=O)O` [AA], for which, in data set [1], the Tm shift is ~ 4 °C.

Turning to `CC/C=C\C[C@@H](/C=C/C=C\C/C=C\C/C=C\CCCC(=O)O)OO` [15(S)-HpEPE, 15S-hydroperoxy-5Z,8Z,11Z,13E,17Z-eicosapentaenoic acid], the “khyperox. (M^-1s^-1)” value in data set [2] is on record as “(2.6 ± 0.4) × 10^7 M^−1s^−1”. Consider `O=S(=O)(O)c1cccc2cccc(Nc3ccccc3)c12` [ANS, 8-anilino-1-naphtalene sulfonic acid], for which the dissociation constant Kd (as a rule, a measure of binding affinity in units of concentration) in data set [3] is 65 ± 4 µM. Take `CCCCC[C@@H](/C=C/[C@@H]1[C@@H](C/C=C\CCCC(=O)O)[C@@H]2C[C@H]1OO2)OO` [PGG2, 9α,11α-epidioxy-15S-hydroperoxy-prosta-5Z,13E-dien-1-oic acid]: the “khyperox. (M^-1s^-1)” value in data set [2] was “(3.1 ± 0.7) × 10^5 M^−1s^−1”. Turning to `CCCCC[C@@H](/C=C/C=C\C/C=C\C/C=C\CCCC(=O)O)OO` [15(S)-HpETE, 15S-hydroperoxy-5Z,8Z,11Z,13E-eicosatetraenoic acid], the “khyperox. (M^-1s^-1)” value in data set [2] is on record as “(1.7 ± 0.1) × 10^7 M^−1s^−1”.

B1: Human peroxiredoxin 3 (wild type, recombinant, lacking the mitochondrial targeting sequence) (enzyme)
chain: GGGAPAVTQHAPYFKGTAVVNGEFKDLSLDDFKGKYLVLFFYPLDFTFVCPTEIVAFSDKANEFHDVNCEVVAVSVDSHFSHLAWINTPRKNGGLGHMNIALLSDLTKQISRDYGVLLEGSGLALRGLFIIDPNGVIKHLSVNDLPVGRSVEETLRLVKAFQYVETHGEVCPANWTPDSPTIKPSPAASKEYFQKVNQ
notes: predicted molecular weight of the reduced subunit 21,797 Da; Samples were alkylated (NEM or 2-iodoacetamide) before analysis; also called HsPrx3; wtHsPrx3; source: E. coli BL21 Star (DE3), purified as previously reported [13]
Take B1: the stoichiometry N (in general, the number of molecules, sites or subunits per partner or assembly) in data set [4] amounted to 2.
